These results are taken from PubChem BioAssay AID1745844 (Carcinogenic Potency Database (CPDB), 2022).

The test system of this data set is rodent lifetime carcinogenesis bioassay, tumor incidence TD50. The experiment in a line: chronic cancer bioassays in animals – CPDB, compiled studies (AID 1745844).

Active and inactive are the calls of the source. The rule behind the calls is not given here.

Turning to `CCN(Cc1cccc(S(=O)(=O)O)c1)c1ccc(C(=C2C=CC(=[N+](CC)Cc3cccc(S(=O)(=O)[O-])c3)C=C2)c2ccc(S(=O)(=O)O)cc2)cc1`, the TD50 was 152000 mg/kg/day (inactive) (mouse, strain C3HeB/FeJ, females, in feed, site: any site (literature study), lesion: malignant tumor, dosed 104 weeks, study length 104 weeks); 148000 mg/kg/day (mouse, strain C3HeB/FeJ, females, in feed, site: any site (literature study), lesion: several types, types named in the paper, dosed 104 weeks, study length 104 weeks); 43800 mg/kg/day (mouse, strain C3HeB/FeJ, females, in feed, site: lung, lesion: several types, types named in the paper, dosed 104 weeks, study length 104 weeks); 49300 mg/kg/day (inactive) (mouse, strain C3HeB/FeJ, males, in feed, site: any site (literature study), lesion: malignant tumor, dosed 104 weeks, study length 104 weeks); 318000 mg/kg/day (mouse, strain C3HeB/FeJ, males, in feed, site: any site (literature study), lesion: several types, types named in the paper, dosed 104 weeks, study length 104 weeks); 18900 mg/kg/day (mouse, strain C3HeB/FeJ, males, in feed, site: liver, lesion: several types, types named in the paper, dosed 104 weeks, study length 104 weeks). In addition, the TD50 by setting is: (mouse, strain C3HeB/FeJ, males, in feed, site: lung, lesion: several types, types named in the paper, dosed 104 weeks, study length 104 weeks) 58200 mg/kg/day; (rat, strain Wistar, both sexes, in feed, site: cecum, lesion: malignant lymphoma, dosed 95 weeks, study length 95 weeks) 5640 mg/kg/day. The carcinogen call (rat, strain Not specified, males, in feed, site: any site (literature study), lesion: one or several types, types not named, dosed 65 weeks, study length 65 weeks) is “negative (inactive)”; the carcinogen call (rat, strain Osborne-Mendel, females, in feed, site: any site (literature study), lesion: malignant tumor, dosed 104 weeks, study length 104 weeks) is “negative (inactive)”; the carcinogen call (rat, strain Osborne-Mendel, females, in feed, site: any site (literature study), lesion: several types, types named in the paper, dosed 104 weeks, study length 104 weeks) was “negative (inactive)”; the carcinogen call (rat, strain Osborne-Mendel, females, in feed, site: liver, lesion: one or several types, types not named, dosed 104 weeks, study length 104 weeks) was “negative (inactive)”; the carcinogen call (rat, strain Osborne-Mendel, males, in feed, site: any site (literature study), lesion: malignant tumor, dosed 104 weeks, study length 104 weeks) is “negative (inactive)”; the carcinogen call (rat, strain Osborne-Mendel, males, in feed, site: any site (literature study), lesion: several types, types named in the paper, dosed 104 weeks, study length 104 weeks) is “negative (inactive)”. The carcinogen call (rat, strain Osborne-Mendel, males, in feed, site: liver, lesion: hepatocellular adenoma, dosed 104 weeks, study length 104 weeks) was “negative (inactive)”.

`CCOC(=O)C(O)(c1ccc(Cl)cc1)c1ccc(Cl)cc1`: the TD50 was 621 mg/kg/day (mouse, strain B6AKF1, females, oral dosing, site: any site (literature study), lesion: several types, types named in the paper, dosed 82 weeks, study length 82 weeks); 621 mg/kg/day (mouse, strain B6AKF1, females, oral dosing, site: lung, lesion: adenoma, dosed 82 weeks, study length 82 weeks); 72.8 mg/kg/day (mouse, strain B6AKF1, males, oral dosing, site: any site (literature study), lesion: several types, types named in the paper, dosed 82 weeks, study length 82 weeks); 69.8 mg/kg/day (mouse, strain B6AKF1, males, oral dosing, site: liver, lesion: hepatoma, dosed 82 weeks, study length 82 weeks); 3930 mg/kg/day (mouse, strain B6C3F1, females, in feed, site: any site (literature study), lesion: several types, types named in the paper, dosed 78 weeks, study length 90 weeks); 848 mg/kg/day (mouse, strain B6C3F1, females, in feed, site: liver, lesion: hepatocellular adenoma + hepatocellular carcinoma + neoplastic nodule, dosed 78 weeks, study length 90 weeks). The TD50 (mouse, strain B6C3F1, females, in feed, site: liver, lesion: hepatocellular carcinoma, dosed 78 weeks, study length 90 weeks) is 848 mg/kg/day; the TD50 (mouse, strain B6C3F1, females, oral dosing, site: any site (literature study), lesion: several types, types named in the paper, dosed 82 weeks, study length 82 weeks) worked out at 302 mg/kg/day; the TD50 (mouse, strain B6C3F1, females, oral dosing, site: lung, lesion: adenoma, dosed 82 weeks, study length 82 weeks) was found to be 621 mg/kg/day; the TD50 (mouse, strain B6C3F1, males, in feed, site: any site (literature study), lesion: several types, types named in the paper, dosed 78 weeks, study length 90 weeks) turned out to be 256 mg/kg/day; the TD50 (mouse, strain B6C3F1, males, in feed, site: liver, lesion: hepatocellular adenoma + hepatocellular carcinoma + neoplastic nodule, dosed 78 weeks, study length 90 weeks) was determined as 235 mg/kg/day; the TD50 (mouse, strain B6C3F1, males, in feed, site: liver, lesion: hepatocellular carcinoma, dosed 78 weeks, study length 90 weeks) is 235 mg/kg/day. Besides, the TD50 reads like this: (mouse, strain B6C3F1, males, oral dosing, site: any site (literature study), lesion: several types, types named in the paper, dosed 82 weeks, study length 82 weeks) 31.7 mg/kg/day; (mouse, strain B6C3F1, males, oral dosing, site: liver, lesion: hepatoma, dosed 82 weeks, study length 82 weeks) 43.8 mg/kg/day; (rat, strain Osborne-Mendel, females, in feed, site: adrenal gland, lesion: cortical adenoma, dosed 78 weeks, study length 110 weeks) 490 mg/kg/day (inactive); (rat, strain Osborne-Mendel, males, in feed, site: adrenal gland, lesion: cortical adenoma, dosed 78 weeks, study length 110 weeks) 186 mg/kg/day (inactive); (rat, strain Osborne-Mendel, males, in feed, site: liver, lesion: hepatocellular adenoma + hepatocellular carcinoma + neoplastic nodule, dosed 78 weeks, study length 110 weeks) 1600 mg/kg/day. Also, the carcinogen call (rat, strain Carworth Farms, females, in feed, site: mammary gland, lesion: adenofibroma, dosed 104 weeks, study length 104 weeks) is “negative (inactive)”.

Take `Nc1nc(N)nc(-c2cc(Cl)ccc2Cl)n1`: the carcinogen call (rat, strain Wistar, males, in feed, site: liver, lesion: one or several types, types not named, dosed 55 weeks, study length 55 weeks) is “negative (inactive)”.

As for `CCCCNC(=O)NS(=O)(=O)c1ccc(C)cc1`, the TD50 (mouse, strain B6C3F1, females, in feed, site: any site (literature study), lesion: several types, types named in the paper, dosed 78 weeks, study length 103 weeks) was 24200 mg/kg/day (inactive). For the same compound, the carcinogen call was “negative (inactive)” (mouse, strain B6C3F1, males, in feed, site: any site (literature study), lesion: several types, types named in the paper, dosed 78 weeks, study length 102 weeks); “negative (inactive)” (rat, strain Fischer 344, females, in feed, site: any site (literature study), lesion: several types, types named in the paper, dosed 78 weeks, study length 106 weeks); “negative (inactive)” (rat, strain Fischer 344, males, in feed, site: any site (literature study), lesion: several types, types named in the paper, dosed 78 weeks, study length 106 weeks).

Turning to `C=CC(O)c1ccc2c(c1)OCO2` (configuration not stated), the TD50 (mouse, strain (B6C3F1 x B6C3 background, brachymorphic) inter se = B6C3F2 br, females, in feed, site: liver, lesion: hepatoma, dosed 52 weeks, study length 69 weeks) came out at 1530 mg/kg/day; the TD50 (mouse, strain (B6C3F1 x B6C3 background, brachymorphic) inter se = B6C3F2 ph, females, in feed, site: liver, lesion: hepatoma, dosed 52 weeks, study length 69 weeks) was 53.3 mg/kg/day; the TD50 (mouse, strain Charles River CD1, females, in feed, site: liver, lesion: hepatocellular carcinoma, dosed 51 weeks, study length 73 weeks) is 68 mg/kg/day; the TD50 (mouse, strain Charles River CD1, females, in feed, site: liver, lesion: hepatoma, dosed 52 weeks, study length 69 weeks) is 49.1 mg/kg/day; the TD50 (mouse, strain Charles River CD1, females, in feed, site: lung, lesion: adenoma, dosed 52 weeks, study length 69 weeks) was determined as 3670 mg/kg/day; the TD50 (mouse, strain Charles River CD1, females, in feed, site: subcutaneous tissue, lesion: angiosarcoma, dosed 51 weeks, study length 73 weeks) came to 1550 mg/kg/day. In addition, the TD50 reads like this: (mouse, strain Charles River CD1, males, in feed, site: interscapulum, lesion: angiosarcoma, dosed 56 weeks, study length 69 weeks) 429 mg/kg/day; (mouse, strain Charles River CD1, males, in feed, site: liver, lesion: carcinoma, dosed 56 weeks, study length 69 weeks) 18900 mg/kg/day; (mouse, strain Charles River CD1, males, in feed, site: lung, lesion: adenoma, dosed 56 weeks, study length 69 weeks) 5470 mg/kg/day; (rat, strain Charles River CD (Sprague-Dawley), males, in feed, site: forestomach, lesion: papilloma, dosed 36 weeks, study length 52 weeks) 65.8 mg/kg/day; (rat, strain Charles River CD (Sprague-Dawley), males, in feed, site: forestomach, lesion: papilloma, dosed 43 weeks, study length 69 weeks) 59.8 mg/kg/day; (rat, strain Charles River CD (Sprague-Dawley), males, in feed, site: liver, lesion: carcinoma, dosed 36 weeks, study length 52 weeks) 12.1 mg/kg/day. Besides, the TD50 was 16.7 mg/kg/day (rat, strain Charles River CD (Sprague-Dawley), males, in feed, site: liver, lesion: carcinoma, dosed 43 weeks, study length 69 weeks) and 47.8 mg/kg/day (rat, strain Charles River CD (Sprague-Dawley), males, in feed, site: liver, lesion: hepatocellular carcinoma, dosed 58 weeks, study length 95 weeks).

Regarding `Cc1c(C)c2c(c(C)c1O)CCC(C)(CCCC(C)CCCC(C)CCCC(C)C)O2` (configuration not stated), the carcinogen call was “negative (inactive)” (rat, strain F344/DuCrj, females, in feed, site: colon, lesion: one or several types, types not named, dosed 54 weeks, study length 54 weeks); “negative (inactive)” (rat, strain F344/DuCrj, females, in feed, site: mammary gland, lesion: one or several types, types not named, dosed 54 weeks, study length 54 weeks); “negative (inactive)” (rat, strain F344/DuCrj, males, in feed, site: esophagus, lesion: one or several types, types not named, dosed 52 weeks, study length 52 weeks); “negative (inactive)” (rat, strain F344/DuCrj, males, in feed, site: forestomach, lesion: one or several types, types not named, dosed 52 weeks, study length 52 weeks); “negative (inactive)” (rat, strain F344/DuCrj, males, in feed, site: liver, lesion: one or several types, types not named, dosed 52 weeks, study length 52 weeks).
